Data on ten molecules can be found in ChEMBL document CHEMBL5137097, “A Warhead Substitution Study on the Coronavirus Main Protease Inhibitor Nirmatrelvir” (ACS Med Chem Lett, 2022).

The nature of test [1]: Antiviral activity against Human coronavirus 229E infected in human MRC5 cells assessed as […] cell viability measured after 4 days by CellTiter-Glo luminescence assay. It is filed as functional, cell-based. To be noted: MRC5, 96 h. (Cellular ATP, detected with luciferase, serves as a proxy for viable cell number.)
Test [2] deals with Replicase polyprotein 1ab (Human coronavirus 229E, UniProt P0C6X1). The test can be described thus: Inhibition of full length C terminal His-tagged Human coronavirus 229E 3CLpro expressed in Escherichia coli Rosetta (DE3) cells using (DABCYL)KTSAVLQSGFRKM(Glu)(EDANS) peptide as substrate preincubated for 30 mins followed by substrate addition and measured after 1.5 hrs by FRET assay.

Test [3] deals with Replicase polyprotein 1ab (Severe acute respiratory syndrome coronavirus 2, UniProt P0DTD1). The test can be described thus: Inhibition of full length SARS-CoV-2 3CLpro expressed in Escherichia coli BL21 (DE3) cells using (DABCYL)KTSAVLQSGFRKM(Glu)(EDANS) peptide as substrate preincubated for 30 mins followed by substrate addition and measured after 1.5 hrs by FRET assay.

The EC50 is the midpoint of the concentration-response curve. The IC50 is the concentration needed to halve the response being measured.

Replicase polyprotein 1ab (Human coronavirus 229E, UniProt P0C6X1), sequence (P0C6X1 2966-3267 limits assumed): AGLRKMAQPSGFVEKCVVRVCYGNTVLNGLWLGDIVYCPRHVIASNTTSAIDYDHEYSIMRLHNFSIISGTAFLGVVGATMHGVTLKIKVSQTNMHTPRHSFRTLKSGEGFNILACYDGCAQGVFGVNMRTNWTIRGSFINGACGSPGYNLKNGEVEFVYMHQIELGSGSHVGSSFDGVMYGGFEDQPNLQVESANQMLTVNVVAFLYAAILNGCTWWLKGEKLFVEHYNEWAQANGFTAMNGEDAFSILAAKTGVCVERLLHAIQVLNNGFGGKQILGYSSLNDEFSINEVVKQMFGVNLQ

As for `CC(C)(C)[C@H](NC(=O)C(F)(F)F)C(=O)N1C[C@H]2[C@@H]([C@H]1C(=O)N[C@H](C#N)C[C@@H]1CCNC1=O)C2(C)C`, in test [1], the EC50 came to 212 nM.

`CC(C)(C)[C@H](NC(=O)C(F)(F)F)C(=O)N1C[C@H]2[C@@H]([C@H]1C(=O)N[C@H](C=O)C[C@@H]1CCNC1=O)C2(C)C`: the concentration giving a half-maximal response (EC50) in test [1] turned out to be 770 nM. Besides, the results for the IC50 in test [2] and in test [3] were 16 nM and 10 nM, respectively.

Consider `CC(C)(C)[C@H](NC(=O)C(F)(F)F)C(=O)N1C[C@H]2[C@@H]([C@H]1C(=O)N[C@@H](C[C@@H]1CCNC1=O)C(=O)COCc1ccccc1)C2(C)C`, for which the EC50 in test [1] amounted to 513 nM. The 50% inhibitory concentration (IC50) in test [2] was determined as 467 nM; in test [3], 27 nM.

Turning to `CC(C)(C)[C@H](NC(=O)C(F)(F)F)C(=O)N1C[C@H]2[C@@H]([C@H]1C(=O)N[C@@H](C[C@@H]1CCNC1=O)C(N)=O)C2(C)C`, the IC50 in test [2] and in test [3] was above 100000 nM in each case.

Regarding `CC(C)(C)[C@H](NC(=O)C(F)(F)F)C(=O)N1C[C@H]2[C@@H]([C@H]1C(=O)N[C@@H](C[C@@H]1CCNC1=O)C(=O)CO)C2(C)C`, the EC50 in test [1] is 193 nM. Half-maximal inhibition in test [2] (IC50) required 13 nM.

As to `CC(C)(C)[C@H](NC(=O)C(F)(F)F)C(=O)N1C[C@H]2[C@@H]([C@H]1C(=O)N[C@@H](C[C@@H]1CCNC1=O)C(=O)C(=O)NC1CC1)C2(C)C`, the concentration for a half-maximal effect (EC50) in test [1] amounted to 2360 nM. The half-inhibitory concentration (IC50) in test [2] turned out to be 70 nM; in test [3] it was 19 nM.

In the case of `CC(C)(C)[C@H](NC(=O)C(F)(F)F)C(=O)N1C[C@H]2[C@@H]([C@H]1C(=O)N[C@@H](C[C@@H]1CCNC1=O)C(=O)c1nc3ccccc3s1)C2(C)C`, in test [1], the EC50 was determined as 242 nM. The same molecule yielded a 50% inhibitory concentration (IC50) in test [2] of 239 nM.

Regarding `CC(C)(C)[C@H](NC(=O)C(F)(F)F)C(=O)N1C[C@H]2[C@@H]([C@H]1C(=O)NCCC1CCNC1=O)C2(C)C` (some centres not stated), the IC50 in test [2] and in test [3] was above 100000 nM throughout.

With `CC(C)(C)[C@H](NC(=O)C(F)(F)F)C(=O)N1C[C@H]2[C@@H]([C@H]1C(=O)N[C@H](CO)C[C@@H]1CCNC1=O)C2(C)C`, the half-inhibitory concentration (IC50) in test [2] and in test [3] was above 100000 nM each time.

Turning to `COC(=O)[C@H](C[C@@H]1CCNC1=O)NC(=O)[C@@H]1[C@@H]2[C@H](CN1C(=O)[C@@H](NC(=O)C(F)(F)F)C(C)(C)C)C2(C)C`, the 50% inhibitory concentration (IC50) in test [2] and in test [3] was above 100000 nM throughout.
